Data taken from ChEMBL document CHEMBL1221170, “Sensing with TRP channels” (Nat Chem Biol, 2005).

Key:
Type in all cases: functional
[1] = target: Transient receptor potential cation channel subfamily M member 8 (Homo sapiens) (UniProt Q7Z2W7); assay: Agonist activity at TRPM8
[2] = target: Transient receptor potential cation channel subfamily A member 1 (Homo sapiens) (UniProt O75762); assay: Agonist activity at TRPA1
[3] = target: Transient receptor potential cation channel subfamily V member 4 (Homo sapiens) (UniProt Q9HBA0); assay: Agonist activity at TRPV4
Transient receptor potential cation channel subfamily V member 4 (Homo sapiens), sequence (Q9HBA0 whole entry): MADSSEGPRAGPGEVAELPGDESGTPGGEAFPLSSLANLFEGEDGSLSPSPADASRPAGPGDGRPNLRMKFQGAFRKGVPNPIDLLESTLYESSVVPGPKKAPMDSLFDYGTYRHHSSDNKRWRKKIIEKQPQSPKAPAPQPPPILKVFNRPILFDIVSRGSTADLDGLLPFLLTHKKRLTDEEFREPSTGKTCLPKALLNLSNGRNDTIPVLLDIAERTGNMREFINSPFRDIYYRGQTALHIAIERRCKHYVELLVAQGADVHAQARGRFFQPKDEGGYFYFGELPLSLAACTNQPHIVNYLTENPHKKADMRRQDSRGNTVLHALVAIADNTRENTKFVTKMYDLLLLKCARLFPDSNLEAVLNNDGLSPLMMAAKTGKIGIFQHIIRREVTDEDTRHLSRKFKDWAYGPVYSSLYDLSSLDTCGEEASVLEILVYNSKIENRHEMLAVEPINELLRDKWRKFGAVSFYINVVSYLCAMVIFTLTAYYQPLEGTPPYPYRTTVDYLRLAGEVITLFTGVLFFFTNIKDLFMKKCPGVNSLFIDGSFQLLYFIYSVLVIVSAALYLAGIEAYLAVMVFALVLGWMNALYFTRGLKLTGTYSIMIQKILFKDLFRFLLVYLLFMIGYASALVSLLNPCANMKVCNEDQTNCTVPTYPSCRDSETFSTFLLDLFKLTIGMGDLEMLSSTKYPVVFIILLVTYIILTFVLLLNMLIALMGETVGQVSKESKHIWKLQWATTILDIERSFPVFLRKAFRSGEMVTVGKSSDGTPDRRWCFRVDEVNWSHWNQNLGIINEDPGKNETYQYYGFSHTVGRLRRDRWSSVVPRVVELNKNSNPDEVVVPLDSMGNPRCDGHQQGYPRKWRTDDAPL

Transient receptor potential cation channel subfamily A member 1 (Homo sapiens), sequence (O75762 whole entry): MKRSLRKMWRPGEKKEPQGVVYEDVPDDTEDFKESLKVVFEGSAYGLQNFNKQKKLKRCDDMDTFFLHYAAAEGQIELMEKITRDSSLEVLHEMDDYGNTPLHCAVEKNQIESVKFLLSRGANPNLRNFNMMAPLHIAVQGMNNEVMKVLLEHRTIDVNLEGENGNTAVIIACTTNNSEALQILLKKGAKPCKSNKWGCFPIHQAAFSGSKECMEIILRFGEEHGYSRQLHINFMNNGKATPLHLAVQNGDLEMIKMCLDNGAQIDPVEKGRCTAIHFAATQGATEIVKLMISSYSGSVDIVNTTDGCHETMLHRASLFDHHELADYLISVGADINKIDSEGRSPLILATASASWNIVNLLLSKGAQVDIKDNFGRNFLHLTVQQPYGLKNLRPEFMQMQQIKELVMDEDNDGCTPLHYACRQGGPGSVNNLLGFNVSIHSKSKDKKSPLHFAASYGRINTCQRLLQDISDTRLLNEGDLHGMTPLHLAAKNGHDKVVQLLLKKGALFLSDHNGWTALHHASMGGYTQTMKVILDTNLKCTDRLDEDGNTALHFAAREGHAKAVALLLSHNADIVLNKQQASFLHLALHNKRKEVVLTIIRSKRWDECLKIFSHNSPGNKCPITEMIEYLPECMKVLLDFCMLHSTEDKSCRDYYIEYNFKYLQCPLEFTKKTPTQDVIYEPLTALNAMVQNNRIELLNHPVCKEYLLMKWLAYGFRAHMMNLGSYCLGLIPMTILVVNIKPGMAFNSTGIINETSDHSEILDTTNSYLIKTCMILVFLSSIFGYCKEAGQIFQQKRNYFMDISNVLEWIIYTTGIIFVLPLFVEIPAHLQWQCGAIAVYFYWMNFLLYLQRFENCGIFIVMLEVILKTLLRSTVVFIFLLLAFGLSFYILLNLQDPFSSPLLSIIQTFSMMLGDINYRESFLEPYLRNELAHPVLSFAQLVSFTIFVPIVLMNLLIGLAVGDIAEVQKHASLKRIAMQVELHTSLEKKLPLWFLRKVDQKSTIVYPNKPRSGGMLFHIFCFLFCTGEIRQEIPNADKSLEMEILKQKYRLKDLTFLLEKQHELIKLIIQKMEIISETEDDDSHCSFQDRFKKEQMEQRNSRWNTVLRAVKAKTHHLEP
Transient receptor potential cation channel subfamily M member 8 (Homo sapiens), sequence (Q7Z2W7 whole entry, looked up): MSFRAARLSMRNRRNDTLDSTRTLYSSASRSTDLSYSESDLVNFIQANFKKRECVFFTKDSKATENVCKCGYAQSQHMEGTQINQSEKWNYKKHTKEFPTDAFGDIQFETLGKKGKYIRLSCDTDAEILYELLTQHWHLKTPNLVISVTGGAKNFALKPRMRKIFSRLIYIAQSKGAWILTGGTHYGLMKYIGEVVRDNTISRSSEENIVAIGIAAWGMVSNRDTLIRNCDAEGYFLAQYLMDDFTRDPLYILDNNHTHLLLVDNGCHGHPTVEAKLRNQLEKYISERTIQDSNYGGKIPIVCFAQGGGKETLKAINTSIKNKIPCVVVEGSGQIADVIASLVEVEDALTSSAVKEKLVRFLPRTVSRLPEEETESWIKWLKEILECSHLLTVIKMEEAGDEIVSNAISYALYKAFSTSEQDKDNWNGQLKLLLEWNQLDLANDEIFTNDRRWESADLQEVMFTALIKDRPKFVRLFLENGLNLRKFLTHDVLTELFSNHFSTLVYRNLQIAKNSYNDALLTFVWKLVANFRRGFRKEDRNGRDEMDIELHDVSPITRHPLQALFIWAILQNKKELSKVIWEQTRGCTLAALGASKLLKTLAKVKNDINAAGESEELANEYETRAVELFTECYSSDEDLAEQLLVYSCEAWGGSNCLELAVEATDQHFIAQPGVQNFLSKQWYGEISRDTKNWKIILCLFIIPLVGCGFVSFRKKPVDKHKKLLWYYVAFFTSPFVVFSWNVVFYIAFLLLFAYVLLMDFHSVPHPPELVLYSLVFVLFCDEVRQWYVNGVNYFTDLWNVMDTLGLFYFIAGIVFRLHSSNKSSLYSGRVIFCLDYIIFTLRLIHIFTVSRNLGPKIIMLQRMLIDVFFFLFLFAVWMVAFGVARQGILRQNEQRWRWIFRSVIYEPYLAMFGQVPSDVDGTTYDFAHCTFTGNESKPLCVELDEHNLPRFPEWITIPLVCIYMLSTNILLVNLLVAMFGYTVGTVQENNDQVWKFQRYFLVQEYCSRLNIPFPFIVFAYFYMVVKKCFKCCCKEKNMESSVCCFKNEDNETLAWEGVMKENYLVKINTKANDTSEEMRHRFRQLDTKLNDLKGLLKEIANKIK

Compound	Activity [1] [µM]	Activity [2] [µM]	Activity [3] [µM]
O=C1NC(c2cccc([N+](=O)[O-])c2)=CCN1c1ccccc1O	0.099	0.099	
CC12CCC(CC1)C(C)(C)O2	100		
C=CCS[S+]([O-])CC=C (centres undefined)		10	
CCCCCCCCCC(=O)O[C@H]1[C@H](C)[C@]2(O)[C@H](C=C(CO)C[C@@]3(O)C(=O)C(C)=C[C@H]23)[C@H]2C(C)(C)[C@@]12OC(=O)CCCCCCCCC			0.099
CCCCCc1cc(O)c2c(c1)OC(C)(C)[C@@H]1CCC(C)=C[C@@H]21		10	
CC1CCC(C(C)C)C(O)C1 (centres undefined)	10		
O=C/C=C/c1ccccc1		10	
CCCCC/C=C/C/C=C/C/C=C/CC1OC1CCCC(=O)O (centres undefined)			0.01
